According to patent publication US10392369B2, “N-[(pyrimidinyloxy)propanyl]benzamides” (Boehringer Ingelheim International GmbH, priority 2016, dated 2019):
Where two headings read alike, the source gives them in different places.

Columns and labels:
human Orexin 1 receptor = molecular target: T1, human Orexin 1 receptor (Homo sapiens, UniProt O43613); assay: Assay A: OX1R IP1 (in vitro OX1R potency); type: cell-based; details: for Kb: Table 3, read-out: Assay A OX1R Kb (Orexin A concentration); for OX1R selectivity over OX2R (selectivity ratio OX2R Kb/OX1R Kb) compared to Example 91 in WO2016/034882 / OX1R potency compared to Example 91 in WO2016/034882 / OX1R selectivity compared to Example 14 in WO2016/034882: in words; for OX1R selectivity over OX2R (selectivity ratio OX2R Kb/OX1R Kb) compared to Example 91 in WO2016/034882 / OX1R potency compared to Example 91 in WO2016/034882: versus Example 91 in WO2016/034882; for OX1R selectivity compared to Example 14 in WO2016/034882: versus Example 14 in WO2016/034882
T1 construct: stably expressing the full-length human Orexin 1 receptor; expressed in transfected cells; host or cells: CHO-K1 (CHO-K1/hOx1), co-expressing the aequorin photoprotein
T1 sequence (O43613 1-425): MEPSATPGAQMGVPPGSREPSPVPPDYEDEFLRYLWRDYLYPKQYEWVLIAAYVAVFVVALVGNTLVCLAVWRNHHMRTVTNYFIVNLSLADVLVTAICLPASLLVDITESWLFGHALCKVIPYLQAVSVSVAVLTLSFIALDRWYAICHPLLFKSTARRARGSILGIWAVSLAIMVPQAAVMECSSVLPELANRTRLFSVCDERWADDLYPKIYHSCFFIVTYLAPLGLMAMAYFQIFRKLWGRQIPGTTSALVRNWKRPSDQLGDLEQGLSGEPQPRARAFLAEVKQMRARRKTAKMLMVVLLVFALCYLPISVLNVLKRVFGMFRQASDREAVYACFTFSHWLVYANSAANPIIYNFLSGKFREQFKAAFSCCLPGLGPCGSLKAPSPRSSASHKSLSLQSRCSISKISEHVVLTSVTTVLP
Source text: Activation of the orexin receptors expressed in cell lines results in an increase in intracellular IP3 concentration. IP1, a downstream metabolite of IP3, accumulates in cells following receptor activation and is stable in the presence of LiCl. Using Homogeneous Time-Resolved Fluorescence technology with Lumi4-Tb cryptate (commercially available from Cisbio Bioassay.) and a suitable fluorescence plate reader. […] This technique is used to characterize pharmacological modification of the orexin receptors.
A. In Vitro Testing of OX1R Potency: OX1R IP1
IP1 measurements are performed in CHO-K1 cells stably expressing the full-length human Orexin 1 receptor and the aequorin photoprotein. Cells are cultivated in Ham's nutrient mixture F12 medium with 10% fetal calf serum, in a 37° C., 95% humidity and 5% CO2 incubator. The CHO-K1/hOx1 cell mass is expanded to larger cell numbers. The cells are obtained as frozen cells in cryo-vials and stored until use at −150° C. […] In preparation for the assay, 24 hours before the assay, the cells are thawed at 37° C. and immediately diluted with cell culture medium. After centrifugation, the cell pellet is re-suspended in medium and then distributed into the assay plates with a density of 10000 cells/25 μL per well. The plates are incubated for one hour at room temperature to reduce edge effects before they are incubated for 24 hours at 37° C./5% CO2. Compounds are prepared by an 8-point serial dilution in DMSO and a final dilution step into assay buffer (HBSS with 20 mM HEPES, 0.1% BSA and 50 mM LiCl, pH 7.4) to ensure a final DMSO concentration of 1% in the assay.
(§1) On the day of the assay, cells in the plate are washed twice with 60 μL assay buffer (20 μL buffer remained in the wells after washing), followed by adding 5 μL per well of compounds diluted in assay buffer. After 15 minutes of incubation at room temperature 5 μL per well of Orexin A peptide (final concentration: 0.5 nM and/or 50 nM) dissolved in assay buffer is added to the assay plate. The assay plate is incubated for 60 minutes at 37° C. Then 5 μl per well of Anti-IP1-Cryptate Tb solution and 5 μl per well of IP1-d2 dilution are added and the plate is incubated for a further 60 minutes light protected at room temperature.
8-point four parametric non-linear curve fitting and determination of IC50 values and Hill slopes is performed using a regular analysis software e.g. AssayExplorer (Accelrys). In order to establish an agonist concentration independent parameter, Kb values are calculated using the following equation: IC50/((2+(A/EC50)^n)^1/n−1) (with A=concentration agonist, EC50=EC50 agonist, n=Hill slope agonist).

human orexin 2 receptor = molecular target: T2, human orexin 2 receptor (Homo sapiens, UniProt O43614); assay: Assay B: OX2R IP1 (in vitro OX2R potency); type: cell-based; details: Table 3; 0.5 nM Orexin A
T2 construct: stably expressing the full-length human orexin 2 receptor; expressed in transfected cells; host or cells: CHO-K1 (CHO-K1/hOx2), co-expressing the aequorin photoprotein
T2 sequence (O43614 1-444): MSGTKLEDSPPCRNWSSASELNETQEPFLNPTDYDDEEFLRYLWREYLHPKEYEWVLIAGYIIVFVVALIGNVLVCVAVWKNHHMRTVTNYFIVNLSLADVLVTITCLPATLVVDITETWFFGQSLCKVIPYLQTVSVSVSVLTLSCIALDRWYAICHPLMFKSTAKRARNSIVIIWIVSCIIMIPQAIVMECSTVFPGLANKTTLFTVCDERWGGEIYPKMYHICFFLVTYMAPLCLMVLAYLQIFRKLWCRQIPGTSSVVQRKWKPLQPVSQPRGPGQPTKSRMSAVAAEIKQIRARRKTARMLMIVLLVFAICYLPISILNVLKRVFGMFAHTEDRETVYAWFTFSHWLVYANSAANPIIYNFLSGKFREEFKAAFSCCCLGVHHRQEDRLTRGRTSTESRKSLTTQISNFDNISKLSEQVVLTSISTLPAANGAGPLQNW
Source text: Activation of the orexin receptors expressed in cell lines results in an increase in intracellular IP3 concentration. IP1, a downstream metabolite of IP3, accumulates in cells following receptor activation and is stable in the presence of LiCl. Using Homogeneous Time-Resolved Fluorescence technology with Lumi4-Tb cryptate (commercially available from Cisbio Bioassay.) and a suitable fluorescence plate reader. […] Chem. Genomics 2009, 3, 22-32. This technique is used to characterize pharmacological modification of the orexin receptors.
B. In Vitro Testing of OX2R Potency: OX2R IP1
IP1 measurements are performed in CHO-K1 cells stably expressing the full-length human orexin 2 receptor and the aequorin photoprotein. Cells are cultivated in Ham's nutrient mixture F12 medium with 10% fetal calf serum, in a 37° C., 95% humidity and 5% CO2 incubator. The CHO-K1/hOx2 cell mass is expanded to larger cell numbers. The cells are obtained as frozen cells in cryo-vials and stored until use at −150° C. The viability of the cells after thawing is >90%. In preparation for the assay, 24 hours before the assay, the cells are thawed at 37° C. and immediately diluted with cell culture medium. After centrifugation, the cell pellet is resuspended in medium and then distributed into the assay plates with a density of 5000 cells/25 μL per well. The plates are incubated for one hour at room temperature to reduce edge effects before they are incubated for 24 hours at 37° C./5% CO2. Compounds are prepared by a 8-point serial dilution in DMSO and a final dilution step into assay buffer (HBSS with 20 mM HEPES, 0.1% BSA and 50 mM LiCl, pH 7.4) to ensure a final DMSO concentration of 1% in the assay.
as §1, with “concentration: 0.5 nM) dissolved” for “concentration: 0.5 nM and/or 50 nM) dissolved”, “are added to all well of the plate and the” for “are added and the”, “room temperature. The emission at 615 nm and 665 nm (Excitation wavelength: 320 nm) are measured using an EnVision reader (PerkinElmer). The ratio between the emission at 665 nm and 615 is calculated by the reader.” for “room temperature.”
8-point four parametric non-linear curve fitting and determination of […] values and Hill slopes is performed using a regular analysis software e.g. AssayExplorer (Accelrys). In order to establish an agonist concentration independent parameter, Kb values are calculated using the following equation: IC50/((2+(A/EC50)^n)^1/n−1) (with A=concentration agonist, EC50=EC50 agonist, n=Hill slope agonist) (see P. Leff, I. G. Dougall, Trends Pharmacol. Sci. 1993, 14(4), 110-112).

## CCN(C(=O)c1ccc(F)c(F)c1-n1nccn1)[C@@H](C)COc1ncc(C(F)(F)F)cn1 [Example 35]
Human Orexin 1 receptor
  OX2R Kb/OX1R Kb: 182
  OX1R selectivity over OX2R (selectivity ratio OX2R Kb/OX1R Kb) compared to Example 91 in WO2016/034882: more selective
Human Orexin 1 receptor; 0.5 nM Orexin A
  Kb: 2.5 nM
Human orexin 2 receptor
  Kb: 455 nM

## CCN(C(=O)c1ccc(OC)cc1-n1nccn1)[C@@H](C)COc1ncc(C(F)(F)F)cn1 [Example 30]
Human Orexin 1 receptor
  OX2R Kb/OX1R Kb: 322
  OX1R potency compared to Example 91 in WO2016/034882: increase
  OX1R selectivity over OX2R (selectivity ratio OX2R Kb/OX1R Kb) compared to Example 91 in WO2016/034882: increase
Human Orexin 1 receptor; 0.5 nM Orexin A
  Kb: 1.8 nM
Human orexin 2 receptor
  Kb: 579 nM

## CCN(C(=O)c1ccc(F)cc1-c1ncccn1)[C@@H](C)COc1ncc(C(F)(F)F)cn1 [Example 25]
Human Orexin 1 receptor; 0.5 nM Orexin A
  Kb: 0.81 nM
Human Orexin 1 receptor; 50 nM Orexin A
  Kb: 1.4 nM
Human orexin 2 receptor
  Kb: 272 nM

## CCN(C(=O)c1ccccc1-n1nccn1)[C@@H](C)COc1ncc(C(F)(F)F)cn1 [Example 24]
Human Orexin 1 receptor; 0.5 nM Orexin A
  Kb: 1.8 nM
Human Orexin 1 receptor; 50 nM Orexin A
  Kb: 2.6 nM
Human orexin 2 receptor
  Kb: 237 nM

## CCN(C(=O)c1cc(OC)ccc1-n1nccn1)[C@@H](C)COc1ncc(C(F)(F)F)cn1 [Example 14]
Human Orexin 1 receptor; 0.5 nM Orexin A
  Kb: 0.97 nM
Human Orexin 1 receptor; 50 nM Orexin A
  Kb: 1.21 nM
Human Orexin 1 receptor
  OX1R potency compared to Example 91 in WO2016/034882: increase
  OX1R selectivity over OX2R (selectivity ratio OX2R Kb/OX1R Kb) compared to Example 91 in WO2016/034882: increase
Human orexin 2 receptor
  Kb: 253 nM

## CCN(C(=O)c1ccc(C)cc1-n1nccn1)[C@@H](C)COc1ncc(C(F)(F)F)cn1 [Example 13]
Human Orexin 1 receptor; 0.5 nM Orexin A
  Kb: 0.5 nM
Human Orexin 1 receptor; 50 nM Orexin A
  Kb: 0.38 nM
Human Orexin 1 receptor
  OX1R potency compared to Example 91 in WO2016/034882: increase
  OX1R selectivity over OX2R (selectivity ratio OX2R Kb/OX1R Kb) compared to Example 91 in WO2016/034882: increase
Human orexin 2 receptor
  Kb: 142 nM

## CCN(C(=O)c1cc(C)c(C)cc1-n1nccn1)[C@@H](C)COc1ncc(C(F)(F)F)cn1 [Example 2]
Human Orexin 1 receptor
  OX2R Kb/OX1R Kb: 87
  OX1R potency compared to Example 91 in WO2016/034882: increase in OX1R potency
Human Orexin 1 receptor; 50 nM Orexin A
  Kb: 0.39 nM
Human orexin 2 receptor
  Kb: 34 nM

## CCN(C(=O)c1ccccc1-c1cnc(C)o1)[C@@H](C)COc1ncc(C(F)(F)F)cn1 [Example 31]
Human Orexin 1 receptor
  OX2R Kb/OX1R Kb: 124
  OX1R selectivity over OX2R (selectivity ratio OX2R Kb/OX1R Kb) compared to Example 91 in WO2016/034882: increase in OX1R selectivity
Human Orexin 1 receptor; 0.5 nM Orexin A
  Kb: 6 nM
Human orexin 2 receptor
  Kb: 746 nM

## CCN(C(=O)c1ccccc1-c1nc(C)no1)[C@@H](C)COc1ncc(C(F)(F)F)cn1 [Example 15]
Human Orexin 1 receptor
  OX2R Kb/OX1R Kb: 128
  OX1R selectivity over OX2R (selectivity ratio OX2R Kb/OX1R Kb) compared to Example 91 in WO2016/034882: increase in OX1R selectivity
Human Orexin 1 receptor; 0.5 nM Orexin A
  Kb: 7.8 nM
Human orexin 2 receptor
  Kb: 999 nM

## CCN(C(=O)c1ccccc1-c1ncccn1)[C@@H](C)COc1ncc(C(F)(F)F)cn1 [Example 28]
Human Orexin 1 receptor; 0.5 nM Orexin A
  Kb: 0.62 nM
Human Orexin 1 receptor; 50 nM Orexin A
  Kb: 0.74 nM
Human Orexin 1 receptor
  OX1R selectivity compared to Example 14 in WO2016/034882: increase in OX1R selectivity
Human orexin 2 receptor
  Kb: 176 nM

## CCN(C(=O)c1cccc(F)c1-n1nccn1)[C@@H](C)COc1ncc(Br)cn1 [Example 29]
Human Orexin 1 receptor
  OX2R Kb/OX1R Kb: 178
  OX1R selectivity over OX2R (selectivity ratio OX2R Kb/OX1R Kb) compared to Example 91 in WO2016/034882: increase in OX1R selectivity
Human Orexin 1 receptor; 0.5 nM Orexin A
  Kb: 2 nM
Human orexin 2 receptor
  Kb: 350 nM

## CCN(C(=O)c1ccccc1-c1ncco1)[C@@H](C)COc1ncc(C(F)(F)F)cn1 [Example 36]
Human Orexin 1 receptor
  OX2R Kb/OX1R Kb: 160
  OX1R selectivity over OX2R (selectivity ratio OX2R Kb/OX1R Kb) compared to Example 91 in WO2016/034882: increase in OX1R selectivity
Human Orexin 1 receptor; 0.5 nM Orexin A
  Kb: 3.2 nM
Human orexin 2 receptor
  Kb: 511 nM

## CCN(C(=O)c1cccc(F)c1-c1ncccn1)[C@@H](C)COc1ncc(C(F)(F)F)cn1 [Example 32]
Human Orexin 1 receptor; 0.5 nM Orexin A
  Kb: 0.61 nM
Human Orexin 1 receptor; 50 nM Orexin A
  Kb: 0.46 nM
Human Orexin 1 receptor
  OX1R selectivity compared to Example 14 in WO2016/034882: increase in OX1R selectivity
Human orexin 2 receptor
  Kb: 188 nM

## CCN(C(=O)c1cccc(F)c1-c1nnc(C)o1)[C@@H](C)COc1ncc(C(F)(F)F)cn1 [Example 18]
Human Orexin 1 receptor
  OX2R Kb/OX1R Kb: 415
  OX1R selectivity over OX2R (selectivity ratio OX2R Kb/OX1R Kb) compared to Example 91 in WO2016/034882: increase in OX1R selectivity
Human Orexin 1 receptor; 0.5 nM Orexin A
  Kb: 16 nM
Human orexin 2 receptor
  Kb: 6640 nM

## CCN(C(=O)c1ccc(C)cc1-c1nnc(C)o1)[C@@H](C)COc1ncc(C(F)(F)F)cn1 [Example 19]
Human Orexin 1 receptor
  OX2R Kb/OX1R Kb: 909
  OX1R selectivity over OX2R (selectivity ratio OX2R Kb/OX1R Kb) compared to Example 91 in WO2016/034882: increase in OX1R selectivity
Human Orexin 1 receptor; 0.5 nM Orexin A
  Kb: 7.3 nM
Human orexin 2 receptor
  Kb: 6640 nM
